ChEMBL document CHEMBL1140089 (J Med Chem, 2008)

Biological target: MAP kinase-activated protein kinase 2 (Homo sapiens, UniProt P49137)
Assay: Inhibition of human recombinant MK2 expressed in Escherichia coli BL21(DE3) after 60 mins

MAP kinase-activated protein kinase 2, sequence (P49137 whole entry): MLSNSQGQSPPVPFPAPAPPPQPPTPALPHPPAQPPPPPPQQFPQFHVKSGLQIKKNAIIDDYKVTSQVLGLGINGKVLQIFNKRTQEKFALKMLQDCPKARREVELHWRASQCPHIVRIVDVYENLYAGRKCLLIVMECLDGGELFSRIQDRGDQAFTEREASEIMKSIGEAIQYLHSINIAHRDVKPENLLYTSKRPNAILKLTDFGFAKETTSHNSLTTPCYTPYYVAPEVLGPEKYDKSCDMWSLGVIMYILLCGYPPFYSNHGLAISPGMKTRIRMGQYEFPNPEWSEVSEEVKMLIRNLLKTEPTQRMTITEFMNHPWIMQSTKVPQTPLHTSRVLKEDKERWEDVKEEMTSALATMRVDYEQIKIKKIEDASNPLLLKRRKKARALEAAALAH

IC50 [µM] | Structure (SMILES)
85 | Oc1cccc2cnccc12
> 100 | Oc1cccc2ccccc12 [1-NAPHTHOL]
